In patent US20120004235A1, “METHODS TO TREAT CANCER” (Rutgers, The State University of New Jersey, priority 2009, published 2012):
pIC50: −log10 of the molar value. Like-named read-outs stand apart in the source and are kept apart here. Blank lines part the entries; values can stand above or below the compound they belong to.

Assays:
[1] = tested on: HT29 Human Colon Carcinoma; assay: Human tumor cell CFU assay (Test B); format: cell-based; settings: colony formation, continuous exposure 7-9 days; for pIC50: read-out: IC50 Values (95% Lower and Upper Confidence Intervals); for IC90: read-out: IC90 Values (95% Lower and Upper Confidence Intervals)
Description: (§1) For human tumor cell CFU assays, the cell lines which grow as monolayers, MDA-MB-231, HCT116, HT29, NCI-H460, KB3-1 and KBV-1 were grown in RPMI medium (Invitrogen/Gibco, Grand Island, N.Y.) supplemented with 5% fetal bovine serum (Invitrogen/Gibco, Grand Island, NY). The RPMI-8226 cell line grows in suspension.
(§2) For experiments, human tumor cells (1 103) were plated in 6-well plates in medium supplemented with 5% or 10% fetal bovine serum. The compounds were tested in concentrations over the range from 0.01 to 100 nanomolar in half-log intervals covering […] along with untreated control wells. In later experiments some cases the concentration ranges were refined to focus on the region of interest in the response curves. Each compound concentration was tested in duplicate wells. Cultures were exposed to the compounds continuously for 7-9 days at 37° C. in a humidified atmosphere of 5% carbon dioxide balance air. Each experiment was performed three independent times. Colonies were defined as clusters containing 30 or more cells.
(§3) For the monolayer cultures, colonies were visualized by staining with a preformulated crystal violet solution (Fisher Cat #291-472) which contained 0.41% crystal violet, 12% ethanol balance deionized water. To visualize the colonies, the medium was removed by aspiration; the monolayer was rinsed once with phosphate buffered saline which was removed by aspiration. Three drops of crystal violet solution was added to each well and the 6-well plate was rotated so that the crystal violet solution covered the surface area of each well. After 5 minutes exposure time, the wells were rinsed twice with phosphate buffered saline and the colonies were visible.
(§4) The values were expressed as the mean values with lower and upper 95% confidence intervals in nanomolar concentrations.

[2] = tested on: KBH5.0 BCRP+ KB3-1 Subline; assay: Human tumor cell CFU assay (Test B); format: cell-based; settings: colony formation, continuous exposure 7-9 days; for pIC50: read-out: IC50 Values (95% Lower and Upper Confidence Intervals)
Description: as §1, §2, §3, §4

[3] = tested on: NCI-H460 Human Non-small Cell Lung Carcinoma; assay: Human tumor cell CFU assay (Test B); format: cell-based; settings: colony formation, continuous exposure 7-9 days; for pIC50: read-out: IC50 Values (95% Lower and Upper Confidence Intervals); for IC90: read-out: IC90 Values (95% Lower and Upper Confidence Intervals)
Description: as §1, §2, §3, §4

[4] = tested on: HCT116 Human Colon Carcinoma; assay: Human tumor cell CFU assay (Test B); format: cell-based; settings: colony formation, continuous exposure 7-9 days; for pIC50: read-out: IC50 Values (95% Lower and Upper Confidence Intervals); for IC90: read-out: IC90 Values (95% Lower and Upper Confidence Intervals)
Description: as §1, §2, §3, §4

[5] = tested on: KB3-1 HeLa Human Cervical Carcinoma; assay: Human tumor cell CFU assay (Test B); format: cell-based; settings: colony formation, continuous exposure 7-9 days; for IC90: read-out: IC90 Values (95% Lower and Upper Confidence Intervals)
Description: as §1, §2, §3, §4

[6] = tested on: MDA-MB-231 Human Breast Carcinoma; assay: Human tumor cell CFU assay (Test B); format: cell-based; settings: colony formation, continuous exposure 7-9 days; for pIC50: read-out: IC50 Values (95% Lower and Upper Confidence Intervals); for IC90: read-out: IC90 Values (95% Lower and Upper Confidence Intervals)
Description: as §1, §2, §3, §4

[7] = tested on: KB-V1 MDR1+ KB3-1 Subline; assay: Human tumor cell CFU assay (Test B); format: cell-based; settings: colony formation, continuous exposure 7-9 days
Description: as §1, §2, §3, §4

[8] = tested on: RPMI-8226 Human Multiple Myeloma; assay: Human tumor cell CFU assay (Test B); format: cell-based; settings: colony formation in agar, continuous exposure 7-9 days
Description: as §1
For human tumor cell CFU assays, RPMI-8226 cells were grown in 0.35% agar in DMEM-F12 medium supplemented with 10% fetal bovine serum over a base layer of 0.5% agar in DMEM-F12 medium supplemented with 10% fetal bovine serum
as §2, §4

[9] = tested on: MDA-MB-231 human breast tumor xenograft; settings: qd×5
[10] = tested on: NCI-H460 human non-small cell lung carcinoma xenograft; assay: Compound 2 citrate salt vs. NCI-H460 xenograft model (pemetrexed, topotecan, cisplatin controls); settings: qd×5

pIC50 ([1]; Homo sapiens, HT-29): 8.89
IC90 ([1]; Homo sapiens, HT-29): 4.3 nM
IC90 ([2]; Homo sapiens, KB 3-1): 5.8 nM
pIC50 ([2]; Homo sapiens, KB 3-1): 8.74
pIC50 ([3]; Homo sapiens, NCI-H460): 8.64
IC90 ([3]; Homo sapiens, NCI-H460): 6.2 nM
pIC50 ([4]; Homo sapiens, HCT-116): 8.77
IC90 ([4]; Homo sapiens, HCT-116): 5.6 nM
pIC50 ([5]; Homo sapiens): 8.82
IC90 ([5]; Homo sapiens): 5.2 nM
pIC50 ([6]; Homo sapiens, MDA-MB-231): 9.52
IC90 ([6]; Homo sapiens, MDA-MB-231): 1.2 nM
pIC50 ([7]; Homo sapiens): 8.74
IC90 ([7]; Homo sapiens): 5.7 nM
pIC50 ([8]; Homo sapiens, RPMI-8226): 8.74
IC90 ([8]; Homo sapiens, RPMI-8226): 5.8 nM
SMILES: COc1cc2c(=O)n(CCN(C)C)c3c4cc5c(cc4ncc3c2cc1OC)OCO5 [Compound 1]

pIC50 ([1]; Homo sapiens, HT-29): 9.30
IC90 ([1]; Homo sapiens, HT-29): 1.5 nM
IC90 ([2]; Homo sapiens, KB 3-1): 2.3 nM
pIC50 ([2]; Homo sapiens, KB 3-1): 9.22
pIC50 ([3]; Homo sapiens, NCI-H460): 9.05
IC90 ([3]; Homo sapiens, NCI-H460): 3 nM
pIC50 ([4]; Homo sapiens, HCT-116): 9.40
IC90 ([4]; Homo sapiens, HCT-116): 1.7 nM
pIC50 ([5]; Homo sapiens): 9.10
IC90 ([5]; Homo sapiens): 2.8 nM
pIC50 ([6]; Homo sapiens, MDA-MB-231): 9.30
IC90 ([6]; Homo sapiens, MDA-MB-231): 0.9 nM
pIC50 ([7]; Homo sapiens): 9.22
IC90 ([7]; Homo sapiens): 2.8 nM
pIC50 ([8]; Homo sapiens, RPMI-8226): 9.15
IC90 ([8]; Homo sapiens, RPMI-8226): 2.5 nM
SMILES: COc1cc2c(C(=O)NCC(C)(C)N(C)C)cc3c4cc5c(cc4ncc3c2cc1OC)OCO5 [Compound 3]

pIC50 ([1]; Homo sapiens, HT-29): 9.30
IC90 ([1]; Homo sapiens, HT-29): 1.9 nM
IC90 ([2]; Homo sapiens, KB 3-1): 6 nM
pIC50 ([2]; Homo sapiens, KB 3-1): 8.89
pIC50 ([3]; Homo sapiens, NCI-H460): 8.47
IC90 ([3]; Homo sapiens, NCI-H460): 11 nM
pIC50 ([4]; Homo sapiens, HCT-116): 8.92
IC90 ([4]; Homo sapiens, HCT-116): 4.4 nM
pIC50 ([5]; Homo sapiens): 9.00
IC90 ([5]; Homo sapiens): 4 nM
pIC50 ([6]; Homo sapiens, MDA-MB-231): 9.52
IC90 ([6]; Homo sapiens, MDA-MB-231): 1 nM
pIC50 ([7]; Homo sapiens): 8.85
IC90 ([7]; Homo sapiens): 6.9 nM
pIC50 ([8]; Homo sapiens, RPMI-8226): 9.40
IC90 ([8]; Homo sapiens, RPMI-8226): 1.5 nM
SMILES: COc1cc2c(=O)n(CCN(C)C(C)C)c3c4cc5c(cc4ncc3c2cc1OC)OCO5 [Compound 4]

SMILES: COc1cccc2c1C(=O)c1c(O)c3c(c(O)c1C2=O)C[C@@](O)(C(=O)CO)C[C@@H]3O[C@H]1C[C@H](N)[C@H](O)[C@H](C)O1 [Doxorubicin, reference compound]
toxic deaths ([9]; both dosages, 2.5 and 3 mg/kg/day IP): there were toxic deaths

melting point: 229 °C
SMILES: COc1cc2c(=O)n(CCN3CCCC3)c3c4cc5c(cc4nnc3c2cc1OC)OCO5 [Example 5, 2,3-Dimethoxy-8,9-methylenedioxy-11-[2-(pyrrolidin-1-yl)ethyl]-11H-5,6,11-triaza-chrysen-12-one]

melting point: 294 to 295 °C
SMILES: COc1cc2c(=O)n(CCN3CCCCC3)c3c4cc5c(cc4nnc3c2cc1OC)OCO5 [Example 6, 2,3-Dimethoxy-8,9-methylenedioxy-11-[2-(piperidin-1-yl)ethyl]-11H-5,6,11-triaza-chrysen-12-one]

melting point: 186 to 187 °C
SMILES: COc1cc2c(=O)n(C(C)CN(C)C)c3c4cc5c(cc4ncc3c2cc1OC)OCO5 (stereo not shown) [Example 8, 8,9-Dimethoxy-2,3-methylenedioxy-5-[2-(N,N-dimethylamino)-1-methylethyl]-5H-dibenzo[c,h]1,6-naphthyridin-6-one]

melting point: 255 to 257 °C (dec.)
SMILES: COc1cc2c(=O)n(CCN3CCCC3)c3c4cc5c(cc4ncc3c2cc1OC)OCO5 [Example 9, 8,9-Dimethoxy-2,3-methylenedioxy-5-[2-(pyrrolidin-1-yl)ethyl]-5H-dibenzo[c,h]1,6-naphthyridin-6-one]

melting point: 262 to 264 °C (dec.)
SMILES: COc1cc2c(=O)n(CCCN(C)C)c3c4cc5c(cc4ncc3c2cc1OC)OCO5 [Example 11, 8,9-Dimethoxy-2,3-methylenedioxy-5-[3-(N,N-dimethylamino)propyl]-5H-dibenzo[c,h]1,6-naphthyridin-6-one]

melting point: 285 to 286 °C
SMILES: COc1cc2c(=O)n(CCO)c3c4cc5c(cc4ncc3c2cc1OC)OCO5 [Example 13, 8,9-Dimethoxy-2,3-methylenedioxy-5-[2-(hydroxy)ethyl]-5H-dibenzo[c,h]1,6-naphthyridin-6-one]

melting point: 235 °C
SMILES: COc1cc2c(=O)n(CCOCCO)c3c4cc5c(cc4ncc3c2cc1OC)OCO5 [Example 14, 8,9-Dimethoxy-2,3-methylenedioxy-5-[2-(2-hydroxyethoxy)ethyl]-5H-dibenzo[c,h]1,6-naphthyridin-6-one]

melting point: 271 to 273 °C (dec.)
SMILES: COc1cc2c(cc1OC)-c1cnc3cc4c(cc3c1N(CCN(C)C)C2)OCO4 [Example 17, 8,9-Dimethoxy-2,3-methylenedioxy-5-[2-(N,N-dimethylamino)ethyl]-5,6-dihydro-dibenzo[c,h]1,6-naphthyridine]

melting point: 153 to 154 °C
SMILES: COc1cc2c(cc1OC)-c1cnc3cc4c(cc3c1N(C(C)CN(C)C)C2)OCO4 (stereo not shown) [Example 18, 8,9-Dimethoxy-2,3-methylenedioxy-5-[2-(N,N-dimethylamino)-1-methylethyl]-5,6-dihydro-dibenzo[c,h]1,6-naphthyridine]

melting point: 221 to 223 °C (dec.)
SMILES: CCN(CC)CCn1c(=O)c2cc(OC)c(OC)cc2c2cnc3cc4c(cc3c21)OCO4 [Example 19, 8,9-Dimethoxy-2,3-methylenedioxy-5-[2-(N,N-diethylamino)ethyl]-5H-dibenzo[c,h]1,6-naphthyridin-6-one]

SMILES: O=C(O)C(=O)O.[NH-][C@@H]1CCCC[C@H]1[NH-].[Pt+2] [Oxaliplatin, reference compound]
delay in tumor growth ([9]; 5 and 6.5 mg/kg/day IP): 13 days
tolerability ([9]; 5 and 6.5 mg/kg/day IP): well tolerated
TGI (T/C) ([9]; both dosages, 5 and 6.5 mg/kg/day IP): 45.1-47.6%

SMILES: Nc1nc2[nH]cc(CCc3ccc(C(=O)N[C@@H](CCC(=O)O)C(=O)O)cc3)c2c(=O)[nH]1 [Pemetrexed, reference compound]
antitumor activity ([10]; 100 and 150 mg/kg/day IP): not considered active
body weight loss ([10]; 100 and 150 mg/kg/day IP): ≤ 20%

SMILES: CCc1c2c(nc3ccc(O)cc13)-c1cc3c(c(=O)n1C2)COC(=O)[C@]3(O)CC [SN-38, 7-ethyl-10-hydroxyl-camptothecin, reference compound]
pIC50 [1]: 9.30
IC90 [1]: 1.8 nM
IC90 [2]: 18.8 nM
pIC50 [2]: 8.21
pIC50 [3]: 8.33
IC90 [3]: 13.3 nM
pIC50 [4]: 8.57
IC90 [4]: 8.4 nM
pIC50 [5]: 8.28
IC90 [5]: 19.1 nM
pIC50 [6]: 9.15
IC90 [6]: 2 nM
pIC50 [7]: 7.82
IC90 [7]: 55 nM
pIC50 [8]: 9.05
IC90 [8]: 3 nM

pIC50 ([1]; Homo sapiens, HT-29): 8.54
IC90 ([1]; Homo sapiens, HT-29): 11.2 nM
IC90 ([2]; Homo sapiens, KB 3-1): 115 nM
pIC50 ([2]; Homo sapiens, KB 3-1): 7.49
pIC50 ([3]; Homo sapiens, NCI-H460): 7.74
IC90 ([3]; Homo sapiens, NCI-H460): 52.5 nM
pIC50 ([4]; Homo sapiens, HCT-116): 8.07
IC90 ([4]; Homo sapiens, HCT-116): 26.3 nM
pIC50 ([5]; Homo sapiens): 7.49
IC90 ([5]; Homo sapiens): 107 nM
pIC50 ([6]; Homo sapiens, MDA-MB-231): 8.25
IC90 ([6]; Homo sapiens, MDA-MB-231): 19.5 nM
pIC50 ([7]; Homo sapiens): 7.12
IC90 ([7]; Homo sapiens): 257 nM
pIC50 ([8]; Homo sapiens, RPMI-8226): 7.90
IC90 ([8]; Homo sapiens, RPMI-8226): 43.2 nM
SMILES: CC[C@@]1(O)C(=O)OCc2c1cc1n(c2=O)Cc2cc3c(CN(C)C)c(O)ccc3nc2-1 [Topotecan, reference compound]
body weight loss ([10]; 2 and 2.5 mg/kg/day IP): > 30%
